Tests used:
recombinant CD73 = recombinant CD73 (Homo sapiens (Human), UniProt P21589); assay: Inhibition of the CD73 enzyme in vitro (soluble recombinant CD73, AMP, Malachite Green); type: biochemical; conditions: recombinant CD73 0.5 nM, AMP 50 μM, 30 minutes at room temperature
Procedure: The concentration of inorganic phosphate was determined using a phosphate standard curve.

[1] = target: endogenous, cell-bound CD73 on SK-MEL-28 cells (Homo sapiens (Human), UniProt P21589); assay: Inhibition of endogenous, cell-bound CD73 enzyme activity in SK-MEL-28 cells (AMP, Malachite Green); type: cell-based; conditions: 100 μM AMP, 30 minutes at room temperature
Sequence of endogenous, cell-bound CD73 on SK-MEL-28 cells (P21589 27-574): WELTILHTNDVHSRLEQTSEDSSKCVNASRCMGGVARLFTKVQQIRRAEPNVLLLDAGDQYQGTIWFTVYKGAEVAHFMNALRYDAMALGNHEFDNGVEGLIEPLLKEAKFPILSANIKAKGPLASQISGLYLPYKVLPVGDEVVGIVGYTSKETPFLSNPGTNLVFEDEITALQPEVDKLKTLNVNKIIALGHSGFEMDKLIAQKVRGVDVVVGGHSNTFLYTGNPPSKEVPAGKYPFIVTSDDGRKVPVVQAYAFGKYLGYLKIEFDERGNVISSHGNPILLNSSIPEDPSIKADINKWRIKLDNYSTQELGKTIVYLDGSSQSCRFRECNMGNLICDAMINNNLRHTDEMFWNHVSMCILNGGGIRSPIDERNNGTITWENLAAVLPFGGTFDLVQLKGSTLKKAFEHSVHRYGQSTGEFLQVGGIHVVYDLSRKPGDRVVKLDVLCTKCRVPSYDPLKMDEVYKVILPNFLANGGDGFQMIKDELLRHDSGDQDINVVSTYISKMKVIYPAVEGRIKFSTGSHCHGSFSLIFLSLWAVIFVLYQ
Procedure: The day before the experiment, 5000 cells were plated per well in a 96-well plate. Cells were washed twice with 200 μL reaction buffer (20 mM HEPES, pH 7.4, 125 mM NaCl, 1 mM KCl, 2 mM MgCl2, 10 mM glucose) to remove residual inorganic phosphate. After washing, assays contained serial dilutions of test compounds and 100 μM of AMP in a total volume of 200 μL reaction buffer, with a final DMSO concentration ≤0.5%. After 30 minutes at room temperature, supernatant was removed from the cells. […] The concentration of inorganic phosphate was determined using a phosphate standard curve to determine IC50.

Sequence of recombinant CD73 (P21589 27-547): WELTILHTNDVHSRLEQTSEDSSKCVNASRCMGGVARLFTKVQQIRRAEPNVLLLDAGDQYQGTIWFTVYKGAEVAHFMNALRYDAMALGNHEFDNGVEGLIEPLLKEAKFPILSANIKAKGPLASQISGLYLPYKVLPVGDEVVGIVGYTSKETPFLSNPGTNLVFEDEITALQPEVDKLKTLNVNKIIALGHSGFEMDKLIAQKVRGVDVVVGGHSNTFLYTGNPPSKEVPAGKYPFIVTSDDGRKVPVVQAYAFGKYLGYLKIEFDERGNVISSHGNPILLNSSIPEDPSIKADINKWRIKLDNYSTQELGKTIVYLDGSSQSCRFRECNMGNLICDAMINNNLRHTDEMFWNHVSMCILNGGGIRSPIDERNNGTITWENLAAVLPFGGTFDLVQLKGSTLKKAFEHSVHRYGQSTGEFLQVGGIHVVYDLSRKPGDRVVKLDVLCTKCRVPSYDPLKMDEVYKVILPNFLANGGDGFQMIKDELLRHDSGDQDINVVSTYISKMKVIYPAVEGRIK

IC50 (recombinant CD73) | IC50 [1] | SMILES
718 nM | 598 nM | CCOC(=O)C(Cc1ccc(OC(F)(F)F)cc1)(OC[C@H]1O[C@@H](n2cnc3c(N)nc(Cl)nc32)[C@@H](F)[C@@H]1O)C(=O)O (single isomer, unassigned) [compound 37]
1660 nM | 2560 nM | O=C(O)C(Cc1ccccc1)(OC[C@H]1O[C@@H](n2cnc3c(O)nc(Cl)nc32)[C@@H](F)[C@@H]1O)C(=O)O [compound 74, 2-benzyl-2-(((2R,3R,4S,5R)-5-(2-chloro-6-hydroxy-9H-purin-9-yl)-4-fluoro-3-hydroxytetrahydrofuran-2-yl)methoxy)malonic acid]
183 nM | – | COc1ccc(CC(OC[C@H]2O[C@@H](n3cnc4c(N)nc(Cl)nc43)[C@@H](F)[C@@H]2O)(C(=O)O)C(=O)O)cc1Cl [compound 85, 2-(((2R,3R,4S,5R)-5-(6-amino-2-chloro-9H-purin-9-yl)-4-fluoro-3-hydroxytetrahydrofuran-2-yl)methoxy)-2-(3-chloro-4-methoxybenzyl)malonic acid]
62 nM | – | Nc1nc(Cl)nc2c1ncn2[C@@H]1O[C@H](COC(Cc2ccc(S(N)(=O)=O)cc2)(C(=O)O)C(=O)O)[C@@H](O)[C@@H]1F [compound 86, 2-(((2R,3R,4S,5R)-5-(6-amino-2-chloro-9H-purin-9-yl)-4-fluoro-3-hydroxytetrahydrofuran-2-yl)methoxy)-2-(4-sulfamoylbenzyl)malonic acid]
83 nM | – | Nc1nc(Cl)nc2c1ncn2[C@@H]1O[C@H](COC(Cc2ccc(C(=O)NCCC(=O)O)cc2)(C(=O)O)C(=O)O)[C@@H](O)[C@@H]1F [compound 87, 2-(((2R,3R,4S,5R)-5-(6-amino-2-chloro-9H-purin-9-yl)-4-fluoro-3-hydroxytetrahydro-furan-2-yl)methoxy)-2-(4-((2-carboxy-ethyl)carbamoyl)benzyl) malonic acid]
238 nM | – | Nc1nc(Cl)nc2c1ncn2[C@@H]1O[C@H](COC(Cc2ccc3oc(C(=O)O)cc3c2)(C(=O)O)C(=O)O)[C@@H](O)[C@@H]1F [compound 88, 2-(((2R,3R,4S,5R)-5-(6-amino-2-chloro-9H-purin-9-yl)-4-fluoro-3-hydroxytetrahydro-furan-2-yl)methoxy)-2-((2-carboxybenzofuran-5-yl)methyl)malonic acid]
43 nM | – | Nc1nc(Cl)nc2c1ncn2[C@@H]1O[C@H](COC(Cc2ccc(OCC(F)(F)F)cc2)(C(=O)O)C(=O)O)[C@@H](O)[C@@H]1F [compound 89, 2-(((2R,3R,4S,5R)-5-(6-amino-2-chloro-9H-purin-9-yl)-4-fluoro-3-hydroxytetrahydrofuran-2-yl)methoxy)-2-(4-(2,2,2-trifluoroethoxy)benzyl) malonic acid]
172 nM | – | Nc1nc(Cl)nc2c1ncn2[C@@H]1O[C@H](COC(Cc2ccc(OCC(=O)O)cc2)(C(=O)O)C(=O)O)[C@@H](O)[C@@H]1F [compound 92, 2-(((2R,3R,4S,5R)-5-(6-amino-2-chloro-9H-purin-9-yl)-4-fluoro-3-hydroxytetrahydrofuran-2-yl)methoxy)-2-(4-(carboxymethoxy)benzyl) malonic acid]
906 nM | – | Cc1nnc(-c2ccc(CC(OC[C@H]3O[C@@H](n4cnc5c(N)nc(Cl)nc54)[C@@H](F)[C@@H]3O)(C(=O)O)C(=O)O)cc2)o1 [compound 94, 2-(((2R,3R,4S,5R)-5-(6-amino-2-chloro-9H-purin-9-yl)-4-fluoro-3-hydroxytetrahydrofuran-2-yl)methoxy)-2-(4-(5-methyl-1,3,4-oxadiazol-2-yl)benzyl) malonic acid]
105 nM | – | N#Cc1ccccc1-c1ccc(CC(OC[C@H]2O[C@@H](n3cnc4c(N)nc(Cl)nc43)[C@@H](F)[C@@H]2O)(C(=O)O)C(=O)O)cc1 [compound 95]
788 nM | – | Nc1nc(Cl)nc2c1ncn2[C@@H]1O[C@H](COC(Cc2csc3ccc(Cl)cc23)(C(=O)O)C(=O)O)[C@@H](O)[C@@H]1F [compound 96, 2-(((2R,3R,4S,5R)-5-(6-amino-2-chloro-9H-purin-9-yl)-4-fluoro-3-hydroxytetrahydrofuran-2-yl)methoxy)-2-((5-chlorobenzo[b]thiophen-3-yl)methyl)-malonic acid]
3430 nM | – | Nc1nc(Cl)nc2c1ncn2[C@@H]1O[C@H](COC(Cc2nc3ccccc3s2)(C(=O)O)C(=O)O)[C@@H](O)[C@@H]1F [compound 97, 2-(((2R,3R,4S,5R)-5-(6-amino-2-chloro-9H-purin-9-yl)-4-fluoro-3-hydroxytetrahydrofuran-2-yl)methoxy)-2-(benzo[d]thiazol-2-ylmethyl)malonic acid]
512 nM | – | CNC(=O)c1ccc(CC(OC[C@H]2O[C@@H](n3cnc4c(N)nc(Cl)nc43)[C@@H](F)[C@@H]2O)(C(=O)O)C(=O)O)cc1 [compound 98, 2-(((2R,3R,4S,5R)-5-(6-amino-2-chloro-9H-purin-9-yl)-4-fluoro-3-hydroxytetrahydrofuran-2-yl)methoxy)-2-(4-(methylcarbamoyl)benzyl) malonic acid]
42500 nM | – | C[C@@]1(O)[C@H](O)[C@@H](COC(Cc2ccc(C(=O)O)cc2)(C(=O)O)C(=O)O)O[C@H]1n1cnc2c(N)nc(Cl)nc21 [compound 107]
104 nM | 246 nM | Nc1nc(Cl)nc2c1ncn2[C@@H]1O[C@H](COC(Cc2ccc(F)c(F)c2F)(C(=O)O)C(=O)O)[C@@H](O)[C@@H]1F [compound 108]
601 nM | 1910 nM | O=C(O)C(Cc1ccccc1)(OC[C@H]1O[C@@H](n2cnc3c(SC4CCCC4)nc(Cl)nc32)[C@@H](F)[C@@H]1O)C(=O)O [compound 109]
66 nM | 361 nM | Nc1nc(Cl)nc2c1ncn2[C@@H]1O[C@H](COC(Cc2ccc3c(c2)OC(F)(F)O3)(C(=O)O)C(=O)O)[C@@H](O)[C@@H]1F [compound 110]
141 nM | 182 nM | NC(=O)c1ccc(CC(OC[C@H]2O[C@@H](n3cnc4c(N)nc(Cl)nc43)[C@@H](F)[C@@H]2O)(C(=O)O)C(=O)O)cc1 [compound 111]
63900 nM | – | C[C@@]1(F)[C@H](O)[C@@H](COC(Cc2ccc(C(=O)O)cc2)(C(=O)O)C(=O)O)O[C@H]1n1cnc2c(N)nc(Cl)nc21 [compound 117]

IC50 (recombinant CD73) | IC50 [1] | SMILES
> 200000 nM | – | CCOC(=O)C(Cc1ccccc1)(OC[C@@H]1C[C@H](F)[C@H](n2cnc3c(N)nc(Cl)nc32)O1)C(=O)OCC [compound 118]
28000 nM | – | Nc1nc(Cl)nc2c1ncn2[C@@H]1O[C@H](COC(Cc2ccccc2)(C(=O)O)C(=O)O)C[C@@H]1F [compound 119]
54500 nM | – | COc1nc(N)c2ncn([C@@H]3O[C@H](COC(Cc4ccccc4)(C(=O)O)C(=O)O)C[C@@H]3F)c2n1 [compound 120]
242 nM | 836 nM | Nc1nc(Cl)nc2c1ncn2[C@@H]1O[C@H](COC(Cc2ccc(Cl)c(OC(F)(F)F)c2)(C(=O)O)C(=O)O)[C@@H](O)[C@@H]1F [compound 125]
25300 nM | – | Nc1nc(Cl)nc2c1ncn2[C@@H]1O[C@H](COC(Cc2c(F)cc(Cl)cc2F)(C(=O)O)C(=O)O)[C@@H](O)[C@@H]1F [compound 126]
149 nM | 408 nM | Nc1nc(Cl)nc2c1ncn2[C@@H]1O[C@H](COC(Cc2ccccc2F)(C(=O)O)C(=O)O)[C@@H](O)[C@@H]1F [compound 127]
16500 nM | – | Nc1ncnc2c1ncn2[C@@H]1O[C@H](COC(Cc2cccc(OC(F)(F)F)c2)(C(=O)O)C(=O)OCCN2CCOCC2)[C@@H](O)[C@@H]1F (stereo partly shown) [compound 139]
30 nM | – | Nc1nc(Cl)nc2c1ncn2[C@@H]1O[C@H](COC(Cc2ccc(NC(=O)c3cccs3)cc2)(C(=O)O)C(=O)O)[C@@H](O)[C@@H]1F [compound 140]
60 nM | – | Nc1nc(Cl)nc2c1ncn2[C@@H]1O[C@H](COC(Cc2ccc(NC(=O)c3cccs3)cc2)(C(=O)O)C(=O)O)[C@@H](O)[C@@H]1F [compound 141]
67 nM | – | Nc1nc(Cl)nc2c1ncn2[C@@H]1O[C@H](COC(Cc2ccc(-c3cccnc3)cc2)(C(=O)O)C(=O)O)[C@@H](O)[C@@H]1F [compound 142]
136 nM | – | Nc1nc(Cl)nc2c1ncn2[C@@H]1O[C@H](COC(Cc2ccc(-c3cncnc3)cc2)(C(=O)O)C(=O)O)[C@@H](O)[C@@H]1F [compound 143]
65 nM | – | Nc1nc(Cl)nc2c1ncn2[C@@H]1O[C@H](COC(Cc2ccc(-c3ccc(F)cc3)cc2)(C(=O)O)C(=O)O)[C@@H](O)[C@@H]1F [compound 144]
106 nM | – | Nc1nc(Cl)nc2c1ncn2[C@@H]1O[C@H](COC(Cc2ccc(C(=O)O)cc2)(C(=O)O)C(=O)O)[C@H](O)[C@@H]1F [compound 145]
181 nM | – | Nc1nc(Cl)nc2c1ncn2[C@@H]1O[C@H](COC(Cc2ccccc2)(C(=O)O)C(=O)O)[C@@H](O)[C@@H]1Cl [compound 146]
74 nM | – | CS(=O)(=O)c1ccc(CC(OC[C@H]2O[C@@H](n3cnc4c(N)nc(Cl)nc43)[C@@H](F)[C@@H]2O)(C(=O)O)C(=O)O)cc1 [compound 153]
119 nM | – | Nc1nc(Cl)nc2c1ncn2[C@@H]1O[C@H](COC(Cc2ccccc2)(C(=O)O)C(=O)O)[C@@H](O)[C@@H]1F [compound 169]
114 nM | – | Nc1nc(Cl)nc2c1ncn2[C@@H]1O[C@H](COC(Cc2ccc(C(=O)O)cc2)(C(=O)O)C(=O)O)[C@@H](O)[C@@H]1F [compound 171]
> 50000 nM | – | CCOC(=O)C(Cc1ccccc1)(OC[C@H]1O[C@@H](n2cnc3c(N)nc(Cl)nc32)[C@H](O)[C@@H]1O)c1nn[nH]n1 (stereo partly shown) [compound 193]

SMILES | IC50 (recombinant CD73) | IC50 [1]
Nc1nc(Cl)nc2c1ncn2[C@@H]1O[C@H](COC(Cc2ccccc2)(C(=O)O)C(=O)O)[C@@H](O)[C@H]1N [compound 55, 2-(((2R,3S,4R,5R)-4-amino-5-(6-amino-2-chloro-9H-purin-9-yl)-3-hydroxytetrahydrofuran-2-yl)methoxy)-2-benzylmalonic acid] | – | > 50000 nM
